Laboratory results: patent US11117921B2, “Methods for synthesizing nucleotide analogues with disulfide linkers” (IsoPlexis Corporation, priority 2015, dated 2021)

experiment: Cleavage experiments with thiol cleavage agents, RP-HPLC (FIG. 77, 78A-B); details: RP-HPLC after 10 minutes of incubation with cleave reagent
Text: In addition to these a variety of suitable cleaving agents can be used such as Bis(2-mercaptoethyl)sulfone (BMS) and N,N′-dimethyl-N,N-bis(mercaptoacetyl)hydrazine (DMH) (Singh et al., Bioorg. Chem., 22, 109-115 (1994). Reactions can be further catalyzed by inclusion of selenols (Singh et al. Anal Biochem. 1995 Nov. 20; 232(1):86-91 [18]). Borohydrides, such as sodium borohydrides can also be used for this purpose (Stahl et al., Anal. Chem., 1957, 29 (1), pp 154-155 [19]) as well as ascorbic acid (Nardai et al., J. Biol. Chem. 276, 8825-8828 (2001)). In addition, enzymatic methods for cleavage of disulfide bonds are also well known such as disulfide and thioreductase and can be used with compounds of the present invention (Holmgren et al., Methods in Enzymology, Volume 252, 1995, Pages 199-208 [21]).

| Structure (SMILES) | composition of cleavage reaction mixture (extent of cleavage) |
| --- | --- |
| O[C@H](CS)[C@H](O)CS (racemic) [DTT, dithiothreitol] | full cleavage of both linker and the 3′-protective groups |
| N[C@@H](CS)C(=O)O [L-cysteine] | full cleavage of both linker and the 3′-protective groups |
| NCCS [cysteamine] | full cleavage of both linker and the 3′-protective groups |
| OC(=S)CCC(O)=S [dithiosuccinic acid] | selective cleavage of 3′-O-protective group |
